Laboratory results from PubChem BioAssay (NCI).
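96-well plates; 48 h exposure; 5 concentrations. Endpoints by linear interpolation between flanking doses. Not reached: highest tested concentration assigned. GI50: concentration for 50% inhibition of growth. TGI is the concentration that stops growth completely.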

What was measured:
Experiment in all cases: inhibition of tumour cell growth, NCI panel, 48 h
IGROV1 ovarian = tested on: IGROV1 ovarian
TK-10 renal = tested on: TK-10 renal
UACC-257 melanoma = tested on: UACC-257 melanoma
NCI-H522 lung = tested on: NCI-H522 lung
MCF7 breast = tested on: MCF7 breast
OVCAR-3 ovarian = tested on: OVCAR-3 ovarian
MOLT-4 leukemia = tested on: MOLT-4 leukemia
A498 renal = tested on: A498 renal
DU-145 prostate = tested on: DU-145 prostate
SK-MEL-2 melanoma = tested on: SK-MEL-2 melanoma
KM12 colon = tested on: KM12 colon
SK-MEL-5 melanoma = tested on: SK-MEL-5 melanoma
MALME-3M melanoma = tested on: MALME-3M melanoma
SNB-19 CNS = tested on: SNB-19 CNS
SN12C renal = tested on: SN12C renal
CCRF-CEM leukemia = tested on: CCRF-CEM leukemia
RPMI-8226 leukemia = tested on: RPMI-8226 leukemia
NCI-H226 lung = tested on: NCI-H226 lung
BT-549 breast = tested on: BT-549 breast
ACHN renal = tested on: ACHN renal
SNB-75 CNS = tested on: SNB-75 CNS
NCI-H23 lung = tested on: NCI-H23 lung
HS 578T breast = tested on: HS 578T breast
OVCAR-5 ovarian = tested on: OVCAR-5 ovarian
HCC-2998 colon = tested on: HCC-2998 colon
HCT-15 colon = tested on: HCT-15 colon
M14 melanoma = tested on: M14 melanoma
SF-268 CNS = tested on: SF-268 CNS
U251 CNS = tested on: U251 CNS
NCI-H460 lung = tested on: NCI-H460 lung
MDA-MB-231 breast = tested on: MDA-MB-231 breast
HOP-62 NSCLC = tested on: HOP-62 NSCLC
HT29 colon = tested on: HT29 colon
PC-3 prostate = tested on: PC-3 prostate
SK-MEL-28 melanoma = tested on: SK-MEL-28 melanoma
UACC-62 melanoma = tested on: UACC-62 melanoma
UO-31 renal = tested on: UO-31 renal
HCT-116 colon = tested on: HCT-116 colon
SF-539 CNS = tested on: SF-539 CNS
786-0 renal = tested on: 786-0 renal
EKVX NSCLC = tested on: EKVX NSCLC
OVCAR-4 ovarian = tested on: OVCAR-4 ovarian
A549 NSCLC = tested on: A549 NSCLC
SK-OV-3 ovarian = tested on: SK-OV-3 ovarian
SW-620 colon = tested on: SW-620 colon
K-562 leukemia = tested on: K-562 leukemia
CAKI-1 renal = tested on: CAKI-1 renal
SF-295 CNS = tested on: SF-295 CNS
OVCAR-8 ovarian = tested on: OVCAR-8 ovarian
MDA-MB-435 = tested on: MDA-MB-435
HOP-92 NSCLC = tested on: HOP-92 NSCLC
RXF 393 renal = tested on: RXF 393 renal
LOX IMVI melanoma = tested on: LOX IMVI melanoma
COLO 205 colon = tested on: COLO 205 colon
NCI/ADR-RES ovarian = tested on: NCI/ADR-RES ovarian
HL-60(TB) leukemia = tested on: HL-60(TB) leukemia

## COc1ccc(/C(C)=C(\c2ccc(Cl)cc2)c2ccc(OCCN3CCCCC3)cc2)cc1
IGROV1 ovarian
  GI50: 4.93 µM
  TGI: 11.2 µM
TK-10 renal
  GI50: 5.66 µM
  TGI: 13.8 µM
UACC-257 melanoma
  GI50: 5.73 µM
  TGI: 10.8 µM
NCI-H522 lung
  GI50: 4.12 µM
  TGI: 8.66 µM
MCF7 breast
  GI50: 0.604 µM
  TGI: 5.71 µM
OVCAR-3 ovarian
  GI50: 5.26 µM
  TGI: 11 µM
MOLT-4 leukemia
  GI50: 4.1 µM
  TGI: 19.5 µM
A498 renal
  GI50: 4.73 µM
  TGI: 10.4 µM
DU-145 prostate
  GI50: 8.29 µM
  TGI: 26.6 µM
SK-MEL-2 melanoma
  GI50: 5.85 µM
  TGI: 10.7 µM
KM12 colon
  GI50: 2.72 µM
  TGI: 16 µM
SK-MEL-5 melanoma
  GI50: 1.57 µM
  TGI: 5.44 µM
MALME-3M melanoma
  GI50: 4.01 µM
  TGI: 8.49 µM
SNB-19 CNS
  GI50: 5.32 µM
  TGI: 12.6 µM
SN12C renal
  GI50: 4.68 µM
  TGI: 9.53 µM
CCRF-CEM leukemia
  GI50: 3.05 µM
  TGI: 14.4 µM
RPMI-8226 leukemia
  GI50: 1.44 µM
  TGI: 6.64 µM
NCI-H226 lung
  GI50: 4.85 µM
  TGI: 9.7 µM
BT-549 breast
  GI50: 3.19 µM
  TGI: 7.55 µM
ACHN renal
  GI50: 5.13 µM
  TGI: 9.61 µM
SNB-75 CNS
  GI50: 4.11 µM
  TGI: 10.6 µM
NCI-H23 lung
  GI50: 4.34 µM
  TGI: 10.2 µM
HS 578T breast
  GI50: 5.16 µM
  TGI: 13.3 µM
OVCAR-5 ovarian
  GI50: 4.16 µM
  TGI: 9.55 µM
HCC-2998 colon
  GI50: 3.84 µM
  TGI: 8.1 µM
HCT-15 colon
  GI50: 1.16 µM
  TGI: 4.56 µM
M14 melanoma
  GI50: 0.861 µM
  TGI: 2.36 µM
SF-268 CNS
  GI50: 7.75 µM
  TGI: 26.8 µM
U251 CNS
  GI50: 4.13 µM
  TGI: 8.77 µM
NCI-H460 lung
  GI50: 4.15 µM
  TGI: 9.34 µM
MDA-MB-231 breast
  GI50: 4.58 µM
  TGI: 9.22 µM
HOP-62 NSCLC
  GI50: 4.83 µM
  TGI: 9.96 µM
HT29 colon
  GI50: 0.984 µM
  TGI: 3.87 µM
PC-3 prostate
  GI50: 1.81 µM
  TGI: 6.59 µM
SK-MEL-28 melanoma
  GI50: 3.99 µM
  TGI: 8.4 µM
UACC-62 melanoma
  GI50: 2.12 µM
  TGI: 6.45 µM
UO-31 renal
  GI50: 3.46 µM
  TGI: 7.4 µM
HCT-116 colon
  GI50: 1.46 µM
  TGI: 5.24 µM
SF-539 CNS
  GI50: 3.54 µM
  TGI: 7.68 µM
786-0 renal
  GI50: 0.746 µM
  TGI: 1.9 µM
EKVX NSCLC
  GI50: 2.66 µM
  TGI: 8.79 µM
OVCAR-4 ovarian
  GI50: 3.76 µM
  TGI: 9.51 µM
A549 NSCLC
  GI50: 4.51 µM
  TGI: 10.2 µM
SK-OV-3 ovarian
  GI50: 6.25 µM
  TGI: 12.3 µM
SW-620 colon
  GI50: 3.34 µM
  TGI: 8.09 µM
K-562 leukemia
  GI50: 1.28 µM
  TGI: 10.4 µM
CAKI-1 renal
  GI50: 5.23 µM
  TGI: 12.4 µM
SF-295 CNS
  GI50: 2.97 µM
  TGI: 7.54 µM
OVCAR-8 ovarian
  GI50: 5.64 µM
  TGI: 11.8 µM
MDA-MB-435
  GI50: 3.93 µM
  TGI: 8.56 µM
HOP-92 NSCLC
  GI50: 3.45 µM
  TGI: 7.55 µM
RXF 393 renal
  GI50: 2.5 µM
  TGI: 7.29 µM
LOX IMVI melanoma
  GI50: 1.89 µM
  TGI: 6.2 µM
COLO 205 colon
  GI50: 2.25 µM
  TGI: 7.05 µM
NCI/ADR-RES ovarian
  GI50: 4.79 µM
  TGI: 9.86 µM
HL-60(TB) leukemia
  GI50: 3.94 µM
  TGI: 12.6 µM

## C=CC(=O)N1CCN(CCCn2c(=O)c(-c3c(Cl)c(OC)cc(OC)c3Cl)cc3cnc(NC)nc32)CC1
IGROV1 ovarian
  GI50: 0.888 µM
  TGI: 13.8 µM
TK-10 renal
  GI50: 1.75 µM
  TGI: 16.6 µM
UACC-257 melanoma
  GI50: 3.8 µM
  TGI: 18 µM
NCI-H522 lung
  GI50: 2.51 µM
  TGI: 14.6 µM
MCF7 breast
  GI50: 8.06 µM
  TGI: 31.8 µM
OVCAR-3 ovarian
  GI50: 5.6 µM
  TGI: 20.4 µM
MOLT-4 leukemia
  GI50: 1.83 µM
  TGI: > 100 µM
A498 renal
  TGI: 1.81 µM
DU-145 prostate
  GI50: 2.69 µM
  TGI: 17.7 µM
SK-MEL-2 melanoma
  GI50: 1.13 µM
  TGI: 6.31 µM
KM12 colon
  GI50: 4.61 µM
  TGI: 19.9 µM
SK-MEL-5 melanoma
  GI50: 1.65 µM
  TGI: 12.3 µM
MALME-3M melanoma
  GI50: 1.7 µM
  TGI: 12.5 µM
SNB-19 CNS
  GI50: 7.32 µM
  TGI: 20.7 µM
SN12C renal
  GI50: 3.13 µM
  TGI: 16.2 µM
CCRF-CEM leukemia
  GI50: 2.04 µM
  TGI: 11.9 µM
RPMI-8226 leukemia
  GI50: 1.03 µM
  TGI: 4.09 µM
NCI-H226 lung
  GI50: 0.0408 µM
  TGI: 20.7 µM
BT-549 breast
  GI50: 0.681 µM
  TGI: 16 µM
ACHN renal
  GI50: 0.71 µM
  TGI: 11.6 µM
SNB-75 CNS
  TGI: 9.36 µM
NCI-H23 lung
  GI50: 5.57 µM
  TGI: 20.9 µM
HS 578T breast
  GI50: 2.25 µM
  TGI: 51.8 µM
OVCAR-5 ovarian
  GI50: 15.8 µM
  TGI: 33.5 µM
HCC-2998 colon
  GI50: 10.9 µM
  TGI: 24.6 µM
HCT-15 colon
  GI50: 2.63 µM
  TGI: 15 µM
M14 melanoma
  GI50: 1.67 µM
  TGI: 16.8 µM
SF-268 CNS
  GI50: 3.02 µM
  TGI: 21.3 µM
U251 CNS
  GI50: 2.57 µM
  TGI: 17 µM
NCI-H460 lung
  GI50: 3.22 µM
  TGI: 19 µM
MDA-MB-231 breast
  GI50: 3.52 µM
  TGI: 14.6 µM
HOP-62 NSCLC
  GI50: 5.56 µM
  TGI: 19.3 µM
HT29 colon
  GI50: 4.4 µM
  TGI: 20 µM
PC-3 prostate
  GI50: 2.5 µM
  TGI: 11.4 µM
SK-MEL-28 melanoma
  GI50: 7.07 µM
  TGI: 20.9 µM
UACC-62 melanoma
  GI50: 2.79 µM
  TGI: 15.1 µM
UO-31 renal
  GI50: 0.849 µM
  TGI: 12.4 µM
HCT-116 colon
  GI50: 2.63 µM
  TGI: 17.1 µM
SF-539 CNS
  GI50: 1.58 µM
  TGI: 9.5 µM
786-0 renal
  GI50: 1.32 µM
  TGI: 17.2 µM
EKVX NSCLC
  GI50: 4.38 µM
  TGI: 19.6 µM
OVCAR-4 ovarian
  GI50: 1.14 µM
  TGI: 25 µM
A549 NSCLC
  GI50: 4.41 µM
  TGI: 19.7 µM
SK-OV-3 ovarian
  GI50: 2.18 µM
  TGI: 8.38 µM
SW-620 colon
  GI50: 4.07 µM
  TGI: 34.2 µM
K-562 leukemia
  GI50: 5.96 µM
  TGI: > 100 µM
CAKI-1 renal
  GI50: 0.782 µM
  TGI: 13.6 µM
SF-295 CNS
  GI50: 3.54 µM
  TGI: 16.5 µM
OVCAR-8 ovarian
  GI50: 3.95 µM
  TGI: 22.9 µM
MDA-MB-435
  GI50: 2.74 µM
  TGI: 13.8 µM
RXF 393 renal
  GI50: 1.33 µM
  TGI: 12.9 µM
LOX IMVI melanoma
  GI50: 1.67 µM
  TGI: 15 µM
NCI/ADR-RES ovarian
  GI50: 7.12 µM
  TGI: 67.6 µM
HL-60(TB) leukemia
  GI50: 2.8 µM
  TGI: 29 µM

## COc1cc(C=C2C(=O)NC(=O)NC2=O)ccc1OCc1ccccc1
CCRF-CEM leukemia
  GI50: 79.7 µg/mL
RPMI-8226 leukemia
  GI50: 22.3 µg/mL
BT-549 breast
  GI50: 33.9 µg/mL
NCI-H23 lung
  GI50: 69.9 µg/mL
UO-31 renal
  GI50: 61.2 µg/mL
HOP-92 NSCLC
  GI50: 71.8 µg/mL
LOX IMVI melanoma
  GI50: 87.8 µg/mL
